ChEMBL document CHEMBL2346628, “Real-time analysis of membrane permeabilizing effects of oleanane saponins” (Bioorg Med Chem, 2013)
The source made the active and inactive calls. No cut-off for these calls is given here.

Legend:
ECV-304 [1] = assay: Membrane permeabilization effect on human ECV304 cells assessed as induction of membrane lysis at 48 uM after 1 hr; format: functional, cell-based
ECV-304 [2] = assay: Membrane permeabilization effect on human ECV304 cells assessed as normalized cell index at 12 to 24 uM measured every 15 secs for 3 hrs by real time impedance-based plate reader analysis relative to control relative to control; format: functional
ECV-304 [3] = assay: Membrane permeabilization effect on lysosome of human ECV304 cells assessed as induction of membrane lysis up to 6 uM after 1 hr by N-Acetylglucosaminidase release assay; format: functional, cell-based
ECV-304 [4] = assay: Membrane permeabilization effect on human ECV304 cells at 3 uM measured every 15 secs for 3 hrs by real time impedance-based plate reader analysis; format: functional, cell-based
[5] = Hemolytic activity against human RBC at 6 uM after 30 mins relative to control; format: ADME, cell-based, Erythrocyte; details: red blood cells (RBC), read-out: Activity
[6] = Hemolytic activity against human RBC at 12 uM after 30 mins relative to control; format: ADME, cell-based, Erythrocyte; details: erythrocyte, 0.5 h, 12 µM
ECV-304 [7] = assay: Membrane permeabilization effect on human ECV304 cells assessed as normalized cell index at 6 uM measured every 15 secs for 3 hrs by real time impedance-based plate reader analysis relative to control; format: functional
ECV-304 [8] = assay: Membrane permeabilization effect on human ECV304 cells assessed as increase in propidium iodide uptake at 12 uM after 1 hr by FACS flow cytometric analysis; format: functional, cell-based
ECV-304 [9] = assay: Membrane permeabilization effect on lysosome of human ECV304 cells assessed as induction of membrane lysis at 24 to 48 uM after 1 hr by N-Acetylglucosaminidase release assay; format: functional, cell-based
[10] = Hemolytic activity against human RBC at 48 uM after 30 mins; format: ADME, cell-based; details: erythrocyte, 0.5 h
[11] = Hemolytic activity against human RBC at 24 uM after 30 mins relative to control; format: ADME, cell-based, Erythrocyte; details: red blood cells (RBC), read-out: Activity
[12] = Hemolytic activity against human RBC up to 12 uM after 30 mins; format: ADME, cell-based; details: erythrocyte, 0.5 h
ECV-304 [13] = assay: Membrane permeabilization effect on human ECV304 cells assessed as increase in propidium iodide uptake at 24 uM after 1 hr by FACS flow cytometric analysis; format: functional, cell-based
ECV-304 [14] = assay: Membrane permeabilization effect on human ECV304 cells up to 12 uM measured every 15 secs for 3 hrs by real time impedance-based plate reader analysis; format: functional, cell-based
ECV-304 [15] = assay: Membrane permeabilization effect on human ECV304 cells assessed as increase in propidium iodide uptake at 24 to 48 uM after 1 hr by FACS flow cytometric analysis; format: functional, cell-based
ECV-304 [16] = assay: Membrane permeabilization effect on lysosome of human ECV304 cells assessed as induction of membrane lysis at 48 uM after 1 hr by N-Acetylglucosaminidase release assay; format: functional, cell-based
ECV-304 [17] = assay: Membrane permeabilization effect on human ECV304 cells at 12 to 24 uM measured every 15 secs for 3 hrs by real time impedance-based plate reader analysis; format: functional, cell-based
ECV-304 [18] = assay: Membrane permeabilization effect on human ECV304 cells at 6 uM measured every 15 secs for 3 hrs by real time impedance-based plate reader analysis; format: functional, cell-based

CC(=O)O[C@H]1[C@H](O[C@@H]2OC[C@@H](O)[C@H](O)[C@H]2O)[C@@H](O)[C@H](O[C@@H]2[C@H](O)[C@@H](O[C@@H]3O[C@@H](C)[C@H](O[C@@H]4OC[C@@H](O)[C@H](O[C@@H]5OC[C@@H](O)[C@H](O)[C@H]5O)[C@H]4O)[C@@H](O)[C@H]3O)[C@H](OC(=O)[C@]34CCC(C)(C)C[C@H]3C3=CC[C@@H]5[C@@]6(C)CC[C@H](O[C@H]7O[C@H](C(=O)O)[C@@H](O)[C@H](O[C@@H]8OC[C@@H](O)[C@H](O)[C@H]8O)[C@H]7O[C@@H]7O[C@H](CO)[C@H](O)[C@H](O)[C@H]7O)[C@@](C)(C=O)[C@@H]6CC[C@@]5(C)[C@]3(C)C[C@H]4O)O[C@@H]2C)O[C@@H]1C
Activity (ECV-304 [1]): Active
fold change (FC) (ECV-304 [2]): 0
Activity (ECV-304 [3]): inactive
Activity (ECV-304 [4]): inactive
hemolysis at 0.5 h, 6 µM [5]: 61%
Activity [6]: Toxic
fold change (FC) (ECV-304 [7]): 0.6
Activity (ECV-304 [8]): Active
Activity (ECV-304 [9]): Active

CCC(C)C(CC(O)CC(=O)O[C@H]1[C@@H](O)[C@@H](C)O[C@@H](OC(=O)[C@]23CCC(C)(C)C[C@H]2C2=CC[C@@H]4[C@@]5(C)CC[C@H](O[C@H]6O[C@H](C(=O)O)[C@@H](O)[C@H](O[C@@H]7OC[C@@H](O)[C@H](O)[C@H]7O)[C@H]6O[C@@H]6O[C@H](CO)[C@H](O)[C@H](O)[C@H]6O)[C@@](C)(C=O)[C@@H]5CC[C@@]4(C)[C@]2(C)C[C@H]3O)[C@@H]1O[C@@H]1O[C@@H](C)[C@H](O[C@@H]2OC[C@@H](O)[C@H](O[C@@H]3OCC(O)(O)[C@H]3O)[C@H]2O)[C@@H](O[C@@H]2O[C@H](CO)[C@@H](O)[C@H](O)[C@H]2O)[C@H]1O)OC(=O)CC(O)CC(O[C@@H]1O[C@@H](CO)[C@H](O)[C@H]1O[C@@H]1O[C@@H](C)[C@H](O)[C@@H](O)[C@H]1O)C(C)CC (stereo in doubt; form 2)
Activity [10]: Toxic
hemolysis at 0.5 h, 24 µM [11]: 61%
Activity [12]: Non-toxic

CCC(C)C(CC(O)CC(=O)O[C@H]1[C@@H](O)[C@@H](C)O[C@@H](OC(=O)[C@]23CCC(C)(C)C[C@H]2C2=CC[C@@H]4[C@@]5(C)CC[C@H](O[C@H]6O[C@H](C(=O)O)[C@@H](O)[C@H](O[C@@H]7OC[C@@H](O)[C@H](O)[C@H]7O)[C@H]6O[C@@H]6O[C@H](CO)[C@H](O)[C@H](O)[C@H]6O)[C@@](C)(C=O)[C@@H]5CC[C@@]4(C)[C@]2(C)C[C@H]3O)[C@@H]1O[C@@H]1O[C@@H](C)[C@H](O[C@@H]2OC[C@@H](O)[C@H](O[C@@H]3OCC(O)(O)[C@H]3O)[C@H]2O)[C@@H](O[C@@H]2O[C@H](CO)[C@@H](O)[C@H](O)[C@H]2O)[C@H]1O)OC(=O)CC(O)CC(O[C@@H]1O[C@@H](CO)[C@H](O)[C@H]1O[C@@H]1O[C@@H](C)[C@H](O)[C@@H](O)[C@H]1O)C(C)CC (stereo in doubt; form 1)
Activity (ECV-304 [1]): Active
Activity (ECV-304 [3]): inactive
Activity (ECV-304 [13]): Active
Activity (ECV-304 [14]): inactive

C[C@@H]1O[C@@H](O[C@H]2[C@H](OC(=O)[C@]34CCC(C)(C)C[C@H]3C3=CC[C@@H]5[C@@]6(C)CC[C@H](O[C@H]7O[C@H](C(=O)O)[C@@H](O)[C@H](O[C@@H]8OC[C@@H](O)[C@H](O)[C@H]8O)[C@H]7O[C@@H]7O[C@H](CO)[C@H](O)[C@H](O)[C@H]7O)[C@@](C)(C=O)[C@@H]6CC[C@@]5(C)[C@]3(C)CC4)O[C@H](C)[C@H](O[C@@H]3O[C@H](C)[C@@H](O)[C@H](O)[C@H]3O)[C@@H]2O)[C@H](O)[C@H](O)[C@H]1O[C@@H]1OC[C@@H](O)[C@H](O[C@@H]2OC[C@@H](O)[C@H](O)[C@H]2O)[C@H]1O
Activity (ECV-304 [15]): Active
Activity [10]: Toxic
Activity (ECV-304 [16]): inactive
Activity (ECV-304 [3]): inactive
hemolysis at 0.5 h, 24 µM [11]: 30%
Activity (ECV-304 [17]): inactive
Activity [12]: Non-toxic
Activity (ECV-304 [18]): Active
